Experimental data from ChEMBL document CHEMBL1201862, “PubChem BioAssay data set” (2004).
Active and inactive are the calls of the source.

Columns and labels:
[1] = molecular target: Vascular endothelial growth factor receptor 2 (Homo sapiens, UniProt P35968); assay type: functional
[2] = molecular target: BDNF/NT-3 growth factors receptor (Homo sapiens, UniProt Q16620); assay type: functional;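 further: NTRK2 measured as one member of a broad kinome-wide kinase profiling panel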
[3] = molecular target: Leukocyte tyrosine kinase receptor (Homo sapiens, UniProt P29376); test: Navigating the Kinome. Panel member name: LTK; assay type: functional
Sequence of Leukocyte tyrosine kinase receptor (P29376 whole entry): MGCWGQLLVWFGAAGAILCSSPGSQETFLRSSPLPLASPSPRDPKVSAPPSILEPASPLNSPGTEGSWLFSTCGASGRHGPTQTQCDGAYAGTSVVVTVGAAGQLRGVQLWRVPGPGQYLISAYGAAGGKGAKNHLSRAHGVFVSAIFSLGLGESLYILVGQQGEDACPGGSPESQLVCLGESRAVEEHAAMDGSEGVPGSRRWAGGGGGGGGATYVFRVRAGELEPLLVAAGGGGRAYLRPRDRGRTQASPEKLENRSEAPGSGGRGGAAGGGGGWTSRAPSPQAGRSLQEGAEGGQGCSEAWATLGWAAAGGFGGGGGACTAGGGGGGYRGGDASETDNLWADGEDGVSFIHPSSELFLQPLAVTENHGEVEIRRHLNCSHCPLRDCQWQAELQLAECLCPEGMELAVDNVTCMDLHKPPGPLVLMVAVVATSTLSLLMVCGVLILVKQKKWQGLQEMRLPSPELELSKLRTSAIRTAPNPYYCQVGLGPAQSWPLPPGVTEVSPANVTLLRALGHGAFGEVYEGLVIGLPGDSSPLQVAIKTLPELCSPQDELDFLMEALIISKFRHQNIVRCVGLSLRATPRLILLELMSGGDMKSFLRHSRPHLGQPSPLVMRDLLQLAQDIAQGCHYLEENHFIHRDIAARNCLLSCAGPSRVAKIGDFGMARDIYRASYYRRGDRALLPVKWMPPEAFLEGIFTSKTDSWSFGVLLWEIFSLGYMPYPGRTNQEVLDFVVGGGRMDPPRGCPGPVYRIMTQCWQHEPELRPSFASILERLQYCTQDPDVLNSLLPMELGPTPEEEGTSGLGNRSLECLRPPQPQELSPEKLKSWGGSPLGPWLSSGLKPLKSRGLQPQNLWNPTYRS

[4] = molecular target: Hepatocyte growth factor receptor (Homo sapiens, UniProt P08581); assay type: functional;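 further: kinase panel profiling across the kinome, with MET as the panel member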
[5] = molecular target: Platelet-derived growth factor receptor alpha (Homo sapiens, UniProt P16234); test: Navigating the Kinome. Panel member name: PDGFRA; assay type: functional
Sequence of Platelet-derived growth factor receptor alpha (P16234 whole entry): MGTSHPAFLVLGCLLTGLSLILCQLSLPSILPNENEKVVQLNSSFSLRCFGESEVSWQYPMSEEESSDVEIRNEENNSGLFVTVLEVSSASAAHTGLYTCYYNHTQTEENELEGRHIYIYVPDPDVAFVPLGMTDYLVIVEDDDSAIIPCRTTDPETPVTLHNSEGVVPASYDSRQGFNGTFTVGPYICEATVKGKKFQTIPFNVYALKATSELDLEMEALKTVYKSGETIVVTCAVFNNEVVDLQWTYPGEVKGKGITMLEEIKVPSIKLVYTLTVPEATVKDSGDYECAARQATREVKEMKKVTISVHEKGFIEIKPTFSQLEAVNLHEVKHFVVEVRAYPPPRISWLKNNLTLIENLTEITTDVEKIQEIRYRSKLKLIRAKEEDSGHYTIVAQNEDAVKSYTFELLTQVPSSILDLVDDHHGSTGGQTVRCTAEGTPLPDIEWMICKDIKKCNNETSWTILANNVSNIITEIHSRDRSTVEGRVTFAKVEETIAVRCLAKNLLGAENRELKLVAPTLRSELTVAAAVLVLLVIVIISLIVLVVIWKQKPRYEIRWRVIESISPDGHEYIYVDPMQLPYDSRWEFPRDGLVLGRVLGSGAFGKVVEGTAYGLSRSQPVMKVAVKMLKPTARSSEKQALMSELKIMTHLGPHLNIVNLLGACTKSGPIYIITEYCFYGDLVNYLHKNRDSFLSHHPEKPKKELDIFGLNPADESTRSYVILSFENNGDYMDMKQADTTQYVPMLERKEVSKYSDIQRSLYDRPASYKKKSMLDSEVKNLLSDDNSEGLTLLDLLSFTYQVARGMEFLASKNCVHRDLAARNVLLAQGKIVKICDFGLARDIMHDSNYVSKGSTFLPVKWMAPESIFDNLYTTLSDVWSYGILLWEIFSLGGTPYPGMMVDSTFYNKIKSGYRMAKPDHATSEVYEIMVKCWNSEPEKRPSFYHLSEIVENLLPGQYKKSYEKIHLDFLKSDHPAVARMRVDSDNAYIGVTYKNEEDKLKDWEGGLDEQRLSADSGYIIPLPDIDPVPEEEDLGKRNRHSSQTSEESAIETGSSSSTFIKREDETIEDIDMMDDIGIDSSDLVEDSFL

[6] = molecular target: T1, Receptor-type tyrosine-protein kinase FLT3 (Homo sapiens, UniProt P36888); assay type: functional;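 further: FLT3 was tested as one member of a kinome-wide kinase panel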
T1 sequence (P36888 whole entry): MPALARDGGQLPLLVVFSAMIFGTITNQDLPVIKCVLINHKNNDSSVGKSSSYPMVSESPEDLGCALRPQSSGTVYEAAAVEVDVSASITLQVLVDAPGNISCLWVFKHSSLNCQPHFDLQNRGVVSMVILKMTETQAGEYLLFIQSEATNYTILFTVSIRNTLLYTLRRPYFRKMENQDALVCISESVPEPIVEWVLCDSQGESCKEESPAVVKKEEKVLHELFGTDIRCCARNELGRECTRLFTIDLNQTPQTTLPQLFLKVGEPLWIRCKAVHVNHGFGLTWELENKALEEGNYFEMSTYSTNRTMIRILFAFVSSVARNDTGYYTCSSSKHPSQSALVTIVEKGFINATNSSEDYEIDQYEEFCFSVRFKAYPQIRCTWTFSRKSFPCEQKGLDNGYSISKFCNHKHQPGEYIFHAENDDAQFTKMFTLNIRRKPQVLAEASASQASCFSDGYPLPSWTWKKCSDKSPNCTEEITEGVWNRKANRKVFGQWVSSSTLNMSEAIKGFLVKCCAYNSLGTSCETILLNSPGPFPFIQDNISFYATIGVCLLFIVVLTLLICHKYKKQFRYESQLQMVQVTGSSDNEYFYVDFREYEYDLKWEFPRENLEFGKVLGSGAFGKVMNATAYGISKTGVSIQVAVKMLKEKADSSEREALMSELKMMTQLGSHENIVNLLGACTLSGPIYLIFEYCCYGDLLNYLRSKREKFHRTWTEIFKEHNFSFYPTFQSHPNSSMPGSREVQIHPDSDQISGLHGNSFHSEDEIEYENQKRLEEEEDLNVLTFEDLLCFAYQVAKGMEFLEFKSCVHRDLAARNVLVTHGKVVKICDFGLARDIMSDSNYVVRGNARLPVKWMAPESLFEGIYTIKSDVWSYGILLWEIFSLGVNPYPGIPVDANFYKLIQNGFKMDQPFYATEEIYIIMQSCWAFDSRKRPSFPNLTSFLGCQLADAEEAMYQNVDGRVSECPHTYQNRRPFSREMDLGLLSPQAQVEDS

[7] = molecular target: Mitogen-activated protein kinase 8 (Homo sapiens, UniProt P45983); assay type: functional;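 further: value comes from one member of a kinome-wide kinase profiling panel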
Sequence of Mitogen-activated protein kinase 8 (P45983 whole entry): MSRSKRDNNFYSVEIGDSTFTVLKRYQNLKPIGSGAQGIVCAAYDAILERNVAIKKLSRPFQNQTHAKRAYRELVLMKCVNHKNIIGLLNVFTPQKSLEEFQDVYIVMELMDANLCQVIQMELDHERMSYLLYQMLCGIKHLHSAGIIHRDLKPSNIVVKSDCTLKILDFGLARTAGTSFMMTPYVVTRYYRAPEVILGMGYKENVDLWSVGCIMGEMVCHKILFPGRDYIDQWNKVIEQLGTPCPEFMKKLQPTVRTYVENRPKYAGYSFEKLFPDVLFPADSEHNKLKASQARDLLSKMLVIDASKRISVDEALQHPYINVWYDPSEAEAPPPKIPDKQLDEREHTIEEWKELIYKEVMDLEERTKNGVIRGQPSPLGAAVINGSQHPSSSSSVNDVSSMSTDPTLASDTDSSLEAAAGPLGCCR

[8] = molecular target: T2, cAMP-dependent protein kinase catalytic subunit PRKX (Homo sapiens, UniProt P51817); assay type: functional
T2 sequence (P51817 whole entry): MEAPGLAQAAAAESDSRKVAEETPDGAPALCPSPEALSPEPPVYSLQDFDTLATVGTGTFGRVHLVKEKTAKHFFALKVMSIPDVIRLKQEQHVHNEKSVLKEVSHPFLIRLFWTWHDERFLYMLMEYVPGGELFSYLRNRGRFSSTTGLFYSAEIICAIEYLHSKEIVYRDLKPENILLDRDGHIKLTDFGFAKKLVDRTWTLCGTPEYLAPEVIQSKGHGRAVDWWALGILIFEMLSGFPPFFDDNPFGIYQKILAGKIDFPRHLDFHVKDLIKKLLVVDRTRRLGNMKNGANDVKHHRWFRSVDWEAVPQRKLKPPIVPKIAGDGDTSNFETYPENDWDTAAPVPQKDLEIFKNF

[9] = molecular target: cAMP-dependent protein kinase catalytic subunit alpha (Homo sapiens, UniProt P17612); assay type: functional
[10] = molecular target: High affinity nerve growth factor receptor (Homo sapiens, UniProt P04629); assay type: functional;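 further: NTRK1 tested as one member of a kinome-wide profiling panel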
[11] = molecular target: Cyclin-dependent kinase 8 (Homo sapiens, UniProt P49336); test: Navigating the Kinome. Panel member name: CDK8; assay type: functional
Sequence of Cyclin-dependent kinase 8 (P49336 whole entry): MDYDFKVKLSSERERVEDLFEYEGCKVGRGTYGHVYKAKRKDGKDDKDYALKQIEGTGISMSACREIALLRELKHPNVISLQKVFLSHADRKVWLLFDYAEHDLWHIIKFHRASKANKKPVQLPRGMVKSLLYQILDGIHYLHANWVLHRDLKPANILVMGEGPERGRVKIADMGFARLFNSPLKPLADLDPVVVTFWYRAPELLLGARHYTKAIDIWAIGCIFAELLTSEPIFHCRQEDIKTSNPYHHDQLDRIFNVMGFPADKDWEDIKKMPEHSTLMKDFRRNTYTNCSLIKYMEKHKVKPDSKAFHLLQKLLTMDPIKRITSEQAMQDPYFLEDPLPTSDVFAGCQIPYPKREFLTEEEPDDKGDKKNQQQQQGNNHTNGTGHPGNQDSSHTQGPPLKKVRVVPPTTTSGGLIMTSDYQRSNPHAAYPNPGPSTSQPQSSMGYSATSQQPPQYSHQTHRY

[12] = molecular target: T3, Serine/threonine-protein kinase Chk1 (Homo sapiens, UniProt O14757); assay type: functional;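 further: measured as one member of a kinome-wide kinase profiling panel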
T3 sequence (O14757 whole entry): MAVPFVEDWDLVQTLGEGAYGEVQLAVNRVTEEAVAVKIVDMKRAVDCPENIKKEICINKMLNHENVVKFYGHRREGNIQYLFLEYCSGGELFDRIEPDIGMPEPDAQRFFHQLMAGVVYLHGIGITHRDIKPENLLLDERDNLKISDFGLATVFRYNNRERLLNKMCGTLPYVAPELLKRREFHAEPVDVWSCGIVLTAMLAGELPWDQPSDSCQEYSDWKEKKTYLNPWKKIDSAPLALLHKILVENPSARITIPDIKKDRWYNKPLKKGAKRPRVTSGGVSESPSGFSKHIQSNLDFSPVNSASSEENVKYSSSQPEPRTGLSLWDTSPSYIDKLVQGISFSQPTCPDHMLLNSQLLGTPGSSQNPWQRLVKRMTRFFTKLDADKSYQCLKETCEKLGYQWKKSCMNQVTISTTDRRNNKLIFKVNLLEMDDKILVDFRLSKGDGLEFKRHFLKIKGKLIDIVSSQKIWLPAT

[13] = molecular target: Dual specificity tyrosine-phosphorylation-regulated kinase 1A (Homo sapiens, UniProt Q13627); assay type: functional;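 further: measured against DYRK1A as one member of a broad kinome profiling panel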
[14] = molecular target: Tyrosine-protein kinase Fyn (Homo sapiens, UniProt P06241); assay type: functional
Caspase-6 = molecular target: T4, Caspase-6 (Homo sapiens, UniProt P55212); test: inhibition of CASP6 peptide cleavage – biochemical, VEID-R110 fluorescence, cherry-pick, dose response (AID 720632)
T4 sequence (P55212 whole entry): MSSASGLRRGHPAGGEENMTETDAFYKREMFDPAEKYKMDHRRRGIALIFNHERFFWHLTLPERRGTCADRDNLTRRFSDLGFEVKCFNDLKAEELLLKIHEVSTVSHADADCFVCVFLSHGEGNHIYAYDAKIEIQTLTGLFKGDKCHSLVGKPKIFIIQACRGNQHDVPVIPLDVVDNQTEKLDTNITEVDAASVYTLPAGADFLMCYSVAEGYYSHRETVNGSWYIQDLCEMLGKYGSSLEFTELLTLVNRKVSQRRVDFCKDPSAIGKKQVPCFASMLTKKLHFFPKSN

Sequence of BDNF/NT-3 growth factors receptor (Q16620 whole entry): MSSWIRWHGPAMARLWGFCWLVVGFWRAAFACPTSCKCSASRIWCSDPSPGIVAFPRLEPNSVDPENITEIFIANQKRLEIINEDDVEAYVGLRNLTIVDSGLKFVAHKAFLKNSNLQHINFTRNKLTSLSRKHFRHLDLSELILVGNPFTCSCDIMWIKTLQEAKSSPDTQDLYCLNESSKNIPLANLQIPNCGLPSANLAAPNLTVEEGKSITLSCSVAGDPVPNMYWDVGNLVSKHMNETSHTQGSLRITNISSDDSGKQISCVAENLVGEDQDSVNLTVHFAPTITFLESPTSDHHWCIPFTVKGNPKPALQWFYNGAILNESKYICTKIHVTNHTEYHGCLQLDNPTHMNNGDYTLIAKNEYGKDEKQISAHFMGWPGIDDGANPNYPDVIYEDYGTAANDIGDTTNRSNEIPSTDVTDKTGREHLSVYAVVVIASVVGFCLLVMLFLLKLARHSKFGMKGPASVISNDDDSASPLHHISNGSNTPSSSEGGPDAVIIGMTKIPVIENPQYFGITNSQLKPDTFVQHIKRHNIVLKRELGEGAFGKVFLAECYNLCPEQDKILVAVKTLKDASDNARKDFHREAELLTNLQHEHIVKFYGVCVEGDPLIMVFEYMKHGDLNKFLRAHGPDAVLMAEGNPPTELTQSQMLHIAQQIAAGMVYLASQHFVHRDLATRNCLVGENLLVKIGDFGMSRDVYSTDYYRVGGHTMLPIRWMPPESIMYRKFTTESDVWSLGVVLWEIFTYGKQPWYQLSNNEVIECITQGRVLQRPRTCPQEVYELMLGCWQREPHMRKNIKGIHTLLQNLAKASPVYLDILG
Sequence of Vascular endothelial growth factor receptor 2 (P35968 whole entry): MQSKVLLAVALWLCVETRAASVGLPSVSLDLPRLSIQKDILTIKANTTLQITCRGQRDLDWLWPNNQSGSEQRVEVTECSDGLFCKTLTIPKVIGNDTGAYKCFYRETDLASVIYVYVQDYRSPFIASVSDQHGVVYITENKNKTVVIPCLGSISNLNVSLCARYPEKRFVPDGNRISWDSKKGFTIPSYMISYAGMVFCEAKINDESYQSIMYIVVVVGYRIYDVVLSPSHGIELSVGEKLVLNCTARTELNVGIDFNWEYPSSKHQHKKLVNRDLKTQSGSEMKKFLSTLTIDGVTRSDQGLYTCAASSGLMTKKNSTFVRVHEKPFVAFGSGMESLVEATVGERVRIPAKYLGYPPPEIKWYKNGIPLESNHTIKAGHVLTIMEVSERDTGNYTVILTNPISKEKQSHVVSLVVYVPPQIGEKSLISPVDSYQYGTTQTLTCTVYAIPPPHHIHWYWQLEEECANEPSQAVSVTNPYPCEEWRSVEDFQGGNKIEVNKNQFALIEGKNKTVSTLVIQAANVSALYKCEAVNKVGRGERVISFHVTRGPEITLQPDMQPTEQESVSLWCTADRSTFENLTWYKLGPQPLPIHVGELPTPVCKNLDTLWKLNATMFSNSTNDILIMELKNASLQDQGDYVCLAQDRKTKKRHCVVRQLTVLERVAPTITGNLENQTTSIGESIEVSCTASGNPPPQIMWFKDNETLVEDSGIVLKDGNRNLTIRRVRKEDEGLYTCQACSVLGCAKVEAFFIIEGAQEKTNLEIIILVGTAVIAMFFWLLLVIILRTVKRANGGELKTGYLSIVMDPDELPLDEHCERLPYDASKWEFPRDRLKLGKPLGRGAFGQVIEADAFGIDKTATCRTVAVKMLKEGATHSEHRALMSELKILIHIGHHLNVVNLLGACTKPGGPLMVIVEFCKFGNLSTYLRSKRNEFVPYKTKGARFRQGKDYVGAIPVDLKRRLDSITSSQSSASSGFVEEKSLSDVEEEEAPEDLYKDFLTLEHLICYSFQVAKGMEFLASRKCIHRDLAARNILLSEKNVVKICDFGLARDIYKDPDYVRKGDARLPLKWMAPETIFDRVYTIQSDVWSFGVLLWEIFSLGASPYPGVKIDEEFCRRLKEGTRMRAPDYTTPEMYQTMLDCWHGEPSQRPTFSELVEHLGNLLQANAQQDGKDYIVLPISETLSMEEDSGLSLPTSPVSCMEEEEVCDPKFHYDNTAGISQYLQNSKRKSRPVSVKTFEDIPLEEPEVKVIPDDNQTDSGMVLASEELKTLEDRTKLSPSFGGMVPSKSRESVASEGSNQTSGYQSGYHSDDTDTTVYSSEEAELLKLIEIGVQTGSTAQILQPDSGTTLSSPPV

Ki [1] | Ki [2] | Ki [3] | Ki [4] | Ki [5] | Ki [6] | Ki [7] | Ki [8] | Ki [9] | Ki [10] | Ki [11] | Ki [12] | Ki [13] | Ki [14] | Structure (SMILES) | AC50 (Caspase-6) | other results
> 2510 nM (inactive) | > 3980 nM (inactive) | > 2510 nM (inactive) | > 2510 nM (inactive) | > 2510 nM (inactive) | > 3160 nM (inactive) | > 5010 nM (inactive) | 2000 nM (active) | 316 nM (active) | > 3160 nM (inactive) | > 3980 nM (inactive) | > 3160 nM (inactive) | > 2000 nM (inactive) | > 6310 nM (inactive) | COc1cccc(CNC(=O)c2cnc(-c3ccncc3)nc2)c1 |  | 
 |  |  |  |  |  |  |  |  |  |  |  |  |  | O=C(COC(=O)c1ccc([N+](=O)[O-])s1)Nc1ccc(F)cc1 | 1960 nM (active) | 
 |  |  |  |  |  |  |  |  |  |  |  |  |  | CCN(CC)CCCC(C)n1c2nc(=O)[nH]c(=O)c-2nc2cc(Cl)ccc21 (stereo unspecified) | 305 nM (active) | 
251 nM (active) | 398 nM (active) | 251 nM (active) | > 3160 nM (inactive) | 1000 nM (active) | 12.6 nM (active) | 251 nM (active) | 63.1 nM (active) | 31.6 nM (active) | 398 nM (active) | 0.794 nM (active) | 398 nM (active) | > 2 nM (inactive) | > 794 nM (inactive) | OC1CCC(Nc2nc(Cl)cc(-c3c[nH]c4ncccc34)n2)CC1 (stereo unspecified) |  | pKi [1]: 6.6; pKi [2]: 6.4; pKi [3]: 6.6; pKi [5]: 6; pKi [6]: 7.9; pKi [7]: 6.6; pKi [8]: 7.2; pKi [9]: 7.5; pKi [10]: 6.4; pKi [11]: 9.1; pKi [12]: 6.4
